Assay results from patent US12583852B2, “Heterocycle derivative” (JW PHARMACEUTICAL CORPORATION, priority 2018, dated 2026).

Tested on: human dermal papilla cells
Assay: Promotion of proliferation of human dermal papilla cells (CellTiter-Glo Luminescent cell viability assay)
Assay type: cell-based
Conditions: human dermal papilla cells (ScienCell, 2499); drug 0 to 30 μM; 48 hours; CellTiter-Glo luminescence; compared to DMSO-treated control group
Description: The effect of promoting cell proliferation by the drug was analyzed using human dermal papilla cells (ScienCell, 2499). Human dermal papilla cells cultured using Mesenchymal Stem Cell Medium (ScienCell, 7501) medium were seeded at a density of 3×10^3 cells/well and in a volume of 100 μl in a 96-well plate, incubated overnight at 37° C. and 5% CO2, treated with the drug at different concentrations ranging from 0 to 30 μM in a volume of 100 μL, and incubated at 37° C. and 5% CO2 for 48 hours. CellTiter-Glo Luminescent cell viability assay was performed according to the manufacturer's protocol (Promega, G7573) to detect cell proliferation. Luminescence was measured using an Envision 2102 multilabeled reader (PerkinElmer) equipment, and the cell proliferation rate was analyzed by the activity of the drug-treated group compared to the DMSO-treated group (control group), which is a solvent of the drug.

| SMILES | Maximum DP cell proliferation (%) |
| --- | --- |
| Nc1n[nH]c2nc(Nc3cc(F)cc(C(F)(F)F)c3F)c(F)cc12 [Compound 73, N6-[2,5-difluoro-3-(trifluoromethyl)phenyl]-5-fluoro-1H-pyrazolo[3,4-b]pyridine-3,6-diamine] | 14 |
| Nc1n[nH]c2nc(Nc3ccc(Cl)c(C(F)F)c3)c(F)cc12 [Compound 75, N6-(4-chloro-3-(difluoromethyl)phenyl)-5-fluoro-1H-pyrazolo[3,4-b]pyridine-3,6-diamine] | 3 |
| Cc1ccc(Cl)c(Nc2nc3[nH]nc(N)c3cc2F)c1F [Compound 76, N6-(6-chloro-2-fluoro-3-methylphenyl)-5-fluoro-1H-pyrazolo[3,4-b]pyridine-3,6-diamine] | 4 |
| Nc1n[nH]c2nc(Nc3cccc(C(F)(F)F)c3Cl)c(F)cc12 [Compound 77, N6-(2-chloro-3-(trifluoromethyl)phenyl)-5-fluoro-1H-pyrazolo[3,4-b]pyridine-3,6-diamine] | 15 |
| N#Cc1cccc(Nc2nc3[nH]nc(N)c3cc2F)c1F [Compound 79, 3-[(3-amino-5-fluoro-1H-pyrazolo[3,4-b]pyridin-6-yl)amino]-2-fluoro-benzonitrile] | 3.6 |
| Nc1n[nH]c2nc(Nc3ccc(F)c(C(F)(F)F)c3F)c(F)cc12 [Compound 80, N6-(2,4-difluoro-3-(trifluoromethyl)phenyl)-5-fluoro-1H-pyrazolo[3,4-b]pyridine-3,6-diamine] | 6 |
| Cc1c(F)cccc1Nc1nc2[nH]nc(N)c2cc1F [Compound 82, 5-fluoro-N6-(3-fluoro-2-methylphenyl)-1H-pyrazolo[3,4-b]pyridine-3,6-diamine] | 14 |
| Cc1nc(Nc2cccc3c2CCC3)nc2[nH]nc(N)c12 [Compound 84, N6-(2,3-dihydro-1H-inden-4-yl)-4-methyl-1H-pyrazolo[3,4-d]pyrimidine-3,6-diamine] | 7.4 |
| Nc1n[nH]c2nc(Nc3cccc4c3CCC4(F)F)c(F)cc12 [Compound 85, N6-(1,1-difluoro-2,3-dihydro-1H-inden-4-yl)-5-fluoro-1H-pyrazolo[3,4-b]pyridine-3,6-diamine] | 15 |
| CC(=O)n1nc(N)c2cc(F)c(Nc3cccc4c3CCC4)nc21 [Compound 88, 1-(3-amino-6-((2,3-dihydro-1H-inden-4-yl)amino)-5-fluoro-1H-pyrazolo[3,4-b]pyridin-1-yl)ethan-1-one] | 8 |
| O=C(Nc1n[nH]c2nc(Nc3cccc4c3CCC4)c(F)cc12)C1CCCC1 [Compound 89, N-(6-((2,3-dihydro-1H-inden-4-yl)amino)-5-fluoro-1H-pyrazolo[3,4-b]pyridin-3-yl)cyclopentanecarboxamide] | 0.4 |
| Cn1nc(N)c2cc(F)c(Nc3cccc4c3CCC4)nc21 [Compound 90, N6-(2,3-dihydro-1H-inden-4-yl)-5-fluoro-1-methyl-1H-pyrazolo[3,4-b]pyridine-3,6-diamine] | 13 |
| O=C(Nc1n[nH]c2nc(Nc3cccc4c3CCC4)c(F)cc12)c1ccncc1 [Compound 91, N-(6-((2,3-dihydro-1H-inden-4-yl)amino)-5-fluoro-1H-pyrazolo[3,4-b]pyridin-3-yl)isonicotinamide] | 6.4 |
| CC(=O)Nc1n[nH]c2nc(Nc3cccc4c3CCC4)c(F)cc12 [Compound 92, N-(6-((2,3-dihydro-1H-inden-4-yl)amino)-5-fluoro-1H-pyrazolo[3,4-b]pyridin-3-yl)acetamide] | 8 |
| Nc1nn(Cc2ccccc2)c2nc(Nc3cccc4c3CCC4)c(F)cc12 [Compound 93, 1-benzyl-N6-(2,3-dihydro-1H-inden-4-yl)-5-fluoro-1H-pyrazolo[3,4-b]pyridine-3,6-diamine] | 2.8 |
| CC(=O)Cn1nc(N)c2cc(F)c(Nc3cccc4c3CCC4)nc21 [Compound 94, 1-(3-amino-6-((2,3-dihydro-1H-inden-4-yl)amino)-5-fluoro-1H-pyrazolo[3,4-b]pyridin-1-yl)propan-2-one] | 18 |

| SMILES | Maximum DP cell proliferation (%) |
| --- | --- |
| CN(C)CCn1nc(N)c2cc(F)c(Nc3cccc4c3CCC4)nc21 [Compound 96, N6-(2,3-dihydro-1H-inden-4-yl)-1-(2-(dimethylamino)ethyl)-5-fluoro-1H-pyrazolo[3,4-b]pyridine-3,6-diamine] | 1.2 |
| O=C1c2ccccc2C(=O)N1c1nn(C2CCCCO2)c2nc(Nc3cccc4c3CCC4)c(F)cc12 (stereo not shown) [Compound 97, 2-(6-((2,3-dihydro-1H-inden-4-yl)amino)-5-fluoro-1-(tetrahydro-2H-pyran-2-yl)-1H-pyrazolo[3,4-b]pyridin-3-yl)isoindoline-1,3-dione] | 10 |
| Nc1nn(CC(=O)c2ccccc2)c2nc(Nc3cccc4c3CCC4)c(F)cc12 [Compound 100, 2-(3-amino-6-((2,3-dihydro-1H-inden-4-yl)amino)-5-fluoro-1H-pyrazolo[3,4-b]pyridin-1-yl)-1-phenylethan-1-one] | 0.8 |
| COC(=O)CNc1n[nH]c2nc(Nc3cccc4c3CCC4)c(F)cc12 [Compound 101, methyl (6-((2,3-dihydro-1H-inden-4-yl)amino)-5-fluoro-1H-pyrazolo[3,4-b]pyridin-3-yl)glycinate] | 9.7 |
| CNc1n[nH]c2nc(Nc3cccc4c3CCC4)c(F)cc12 [Compound 102, 5-fluoro-N6-indan-4-yl-N3-methyl-1H-pyrazolo[3,4-b]pyridine-3,6-diamine] | 13 |
| Fc1cc2cn[nH]c2nc1Nc1cccc2c1CCC2 [Compound 104, N-(2,3-dihydro-1H-inden-4-yl)-5-fluoro-1H-pyrazolo[3,4-b]pyridin-6-amine] | 15 |
| CN(C)c1n[nH]c2nc(Nc3cccc4c3CCC4)c(F)cc12 [Example 105, N6-(2,3-dihydro-1H-inden-4-yl)-5-fluoro-N3,N3-dimethyl-1H-pyrazolo[3,4-b]pyridine-3,6-diamine] | 12 |
| CS(=O)(=O)Nc1n[nH]c2nc(Nc3cccc4c3CCC4)c(F)cc12 [Example 106, N-(6-((2,3-dihydro-1H-inden-4-yl)amino)-5-fluoro-1H-pyrazolo[3,4-b]pyridin-3-yl)methanesulfonamide] | 4.8 |
| Fc1cc2c(-c3ccccc3)n[nH]c2nc1Nc1cccc2c1CCC2 [Example 109, 5-fluoro-N-indan-4-yl-3-phenyl-1H-pyrazolo[3,4-b]pyridin-6-amine] | 3.6 |
| Nc1n[nH]c2nc(Nc3cccc4c3CCC4)ncc12 [Example 112, N6-(2,3-dihydro-1H-inden-4-yl)-1H-pyrazolo[3,4-d]pyrimidine-3,6-diamine] | 2 |
| Nc1n[nH]c2nc(Nc3cccc(C(F)F)c3F)ncc12 [Example 115, N6-(3-(difluoromethyl)-2-fluorophenyl)-1H-pyrazolo[3,4-d]pyrimidine-3,6-diamine] | 3.7 |
| Nc1n[nH]c2nc(Nc3cccc4c3CCC4)nc(Cl)c12 [Example 116, 4-chloro-N6-indan-4-yl-3a,4-didehydro-1H-pyrazolo[3,4-d]pyrimidine-3,6-diamine] | 5.9 |
| Nc1n[nH]c2nc(Nc3cccc(C(F)(F)F)c3F)ncc12 [Example 117, N6-[2-fluoro-3-(trifluoromethyl)phenyl]-1H-pyrazolo[3,4-d]pyrimidine-3,6-diamine] | 6.7 |
| Fc1cc2c(Br)n[nH]c2nc1Nc1c(Br)cc(Br)c2c1CCC2 [Example 119, 3-bromo-N-(5,7-dibromoindan-4-yl)-5-fluoro-1H-pyrazolo[3,4-b]pyridin-6-amine] | 1.3 |
| O/N=N\c1n[nH]c2nc(Nc3cccc4c3CCC4)c(F)cc12 [Example 122, (Z)-N-(2,3-dihydro-1H-inden-4-yl)-5-fluoro-3-(hydroxydiazenyl)-1H-pyrazolo[3,4-b]pyridin-6-amine] | 5.3 |
